Measurements reported in paper PMC7824769, “Identification of Small Molecules Blocking the Pseudomonas aeruginosa Type III Secretion System Protein PcrV” (Biomolecules, 2021).
Several values for one entry are separate records, joined by “and”; a condition that tells them apart may be missing. Equal entries are not always repeated.

Biological target: PcrV (Pseudomonas aeruginosa, UniProt G3XD49)
Test: SPR dose-response binding to immobilized PcrV (equilibrium analysis)
Details: KD ± standard error of KD (Table S1), single experiment; standard error from ProteOn Manager software
Method: The SPR screening was performed using the ProteOn^TM XPR36 Protein Interaction Array System (Bio-Rad Laboratories Inc., Hercules, CA, USA) with ProteOn GLH sensor chip (Bio-Rad Laboratories Inc., Hercules, CA, USA), and the results were analyzed with the ProteOn Manager software^TM (Bio-Rad Laboratories Inc., Hercules, CA, USA), Excel 2016 (Microsoft Office), and GraphPad Prism 7.04. All SPR experiments were performed at 25 °C. The multichannel module of the ProteOn system was in the vertical position during protein immobilization. The proteins were attached to the surface of a GLH sensor chip via amine coupling chemistry. A buffer scouting was performed to elucidate the optimal binding conditions of PcrV to the GLH sensor chip. First, channels 1–4 on the chip surface were activated using a 1:1 mixture of 40 mM 1-ethyl-3-(3-dimethylaminopropyl)carbodiimide hydrochloride (EDAC) (Bio-Rad Laboratories Inc., Hercules, CA, USA) and 10 mM N-hydroxysulfosuccinimide (sulfo-NHS, Bio-Rad Laboratories Inc., Hercules, CA, USA) for 300 s at 30 µL/min. Next, the proteins PcrV (33,398.6 Da, 6.37 mg/mL) was diluted in 10 mM NaOAc (pH 4, 4.5, and 5) to 0.05 mg/mL. PcrV was immobilized in channel 1–3 for 540 s at 30 µL/min. Channel 4 was flushed with 10 mM NaOAc (pH 5) for 540 s at 30 µL/min. As deactivating agent, a 1:1 mixture of 1 M ethanolamine and milli-Q filtered water was used. The deactivating solution was injected over all four channels for 300 s at 30 µL/min. Phosphate buffered saline with Tween (PBST; 10 mM phosphate buffer pH 7.4, 140 mM NaCl, 2.7 mM KCl, and 0.05% Tween 20) was used as the running buffer. The final amount of immobilized protein was measured in resonance units (RU) relative to the signal of the baseline prior activation. […] Immobilization of PcrV diluted in sodium acetate of pH 4.5 in one channel and of pH 5 in one channel were used in the beginning of the screening procedure (for plate 1–26). Since no difference was found between the two pH values, the PcrV protein was diluted in sodium acetate at pH 5 only (in two channels) from plate 27 and the rest of the screen. The immobilization procedure for the screening was performed as described above with the addition that the control protein carbonic anhydrase isoenzyme II from bovine erythrocytes (CAII, Sigma-Aldrich, article number 2522) was immobilized in one channel that was activated and deactivated as described above. CAII (1 mg/mL in PBS) was deactivated when diluted in 10 mM sodium acetate (pH 4) to 0.05 mg/mL. Immobilization level of the deactivated CAII was 18,000 RU. Deactivated CAII was used as a control protein according to the recommendations by the ProteOn manufacturer (Bio-Rad Laboratories Inc., Hercules, CA, USA). As running buffer, we employed PBS (pH 7.4, 0.05% Tween 20).
First, the PcrV protein was immobilized in two channels as described above while keeping a blank channel which was activated and deactivated as described above. The multichannel module of the ProteOn system was in horizontal position during the small molecule interaction studies. They were serially diluted to (400,) 200, 100, 50, 25, 12.5, 6.25, and (3.125); or 100, 50, 25, and 12.5 µM; or 100, 66.7, 44.4, 29.6, 19.7, and 13.2 µM in PBST (0.05% Tween 20) with a total concentration of 5% DMSO in 96-well plates. The running buffer was PBST (0.05% Tween 20) containing 5% DMSO. The analytes were injected at a flowrate of 100 µL/min, contact time was 60 s, and dissociation time was 60–120 s. Solvent correction was performed continuously during the experiments to account for bulk response of DMSO. The data was then baseline-aligned, processed by channel referencing with the blank channel, and solvent-corrected. The equilibrium dissociation constant (KD) values were determined from equilibrium analysis in the ProteOn Manager software^TM. Solubility problems frequently hampered KD determination since the small molecules could not always be dissolved in concentrations high enough to reach a plateau. […]

Chain of PcrV (G3XD49 entry or part of it): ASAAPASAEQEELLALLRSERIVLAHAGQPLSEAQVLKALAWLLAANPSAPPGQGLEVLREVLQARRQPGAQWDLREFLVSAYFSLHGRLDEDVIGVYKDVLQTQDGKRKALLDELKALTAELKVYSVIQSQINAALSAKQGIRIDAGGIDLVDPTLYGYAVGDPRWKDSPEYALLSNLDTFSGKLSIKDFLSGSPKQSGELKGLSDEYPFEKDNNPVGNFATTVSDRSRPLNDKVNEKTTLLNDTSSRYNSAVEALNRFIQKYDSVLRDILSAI

| Compound | Kd [µM] |
| --- | --- |
| Cc1c(Br)ccc(OCCCC(=O)N2CCCCC2C(=O)O)c1C (stereo not shown) [Compound 22] | 61.5 ± 14.9 |
| Cc1c(Br)ccc(OCCCC(=O)NC(C(=O)O)c2ccccc2)c1C (stereo not shown) [Compound 21] | 66.5 ± 18.5 |
| COC(=O)CCCOc1ccc(Br)c(C)c1C [Compound 29] | 206 ± 77 |
| Cc1c(Br)ccc(OCCCC(=O)NS(C)(=O)=O)c1C [Compound 26] | 135 ± 30 |
| Cc1c(Br)ccc(OCCCC(=O)N2CCCC(C(=O)O)C2)c1C (stereo not shown) [Compound 20] | 71.2 ± 23 |
| Cc1cc(OCCCC(=O)O)cc(C)c1Br [Compound 14] | 80.7 ± 30.3 |

Same assay, conditions: SPR KD, equilibrium analysis; mean ± SD of three or more independent experiments, individual values where n < 3; 25 °C, PBST 5% DMSO

| Compound | Kd |
| --- | --- |
| Cc1c(Br)ccc(OCCCC(=O)N2CCCCC2C(=O)O)c1C (stereo not shown) [Compound 22] | 62 µM and 77 µM |
| O=C(O)CCCOc1cccc(C(=O)O)c1 [Compound 10] | > 600 µM |
| Cc1c(Br)ccc(OCCCC(=O)NC(C(=O)O)c2ccccc2)c1C (stereo not shown) [Compound 21] | 67 µM and 88 µM |
| O=C(O)CCCOc1ccc(Cc2ccccc2)cc1 [Compound 16] | > 600 µM |
| Cc1c(Br)ccc(OCCCC(=O)NS(=O)(=O)C(F)(F)F)c1C [Compound 25] | 102 µM and 164 µM |
| COc1cc(OC)cc(OCCCC(=O)O)c1 [Compound 7] | > 600 µM |
| O=C(O)CCCOc1ccc2c(c1)OCO2 [Compound 8] | > 600 µM |
| COC(=O)CCCOc1ccc(Br)c(C)c1C [Compound 29] | 110 ± 83 µM |
| Cc1c(Br)ccc(OCCCC(=O)NS(C)(=O)=O)c1C [Compound 26] | 93 ± 31 µM |
| Cc1c(Br)ccc(OCCCC(=O)N2CCCC(C(=O)O)C2)c1C (stereo not shown) [Compound 20] | 71 µM and 131 µM |
| Cc1cc(OCCCC(=O)O)cc(C)c1Br [Compound 14] | < 150 µM and 148 µM |

Same assay, conditions: dose-response SPR

| Compound | Binding to PcrV in SPR (in words) |
| --- | --- |
| O=C(O)CCCOc1cccc(C(=O)O)c1 [Compound 10] | no binding to PcrV |
| COc1cc(OC)cc(OCCCC(=O)O)c1 [Compound 7] | impaired binding |
| O=C(O)CCCOc1ccc2c(c1)OCO2 [Compound 8] | impaired binding |

Same assay, conditions: single experiment

| Compound | Rmax (Table S1) |
| --- | --- |
| Cc1c(Br)ccc(OCCCC(=O)N2CCCCC2C(=O)O)c1C (stereo not shown) [Compound 22] | 108.6 |
| Cc1c(Br)ccc(OCCCC(=O)NC(C(=O)O)c2ccccc2)c1C (stereo not shown) [Compound 21] | 149.8 |
| COC(=O)CCCOc1ccc(Br)c(C)c1C [Compound 29] | 60 |
| Cc1cc(OCCCC(=O)O)cc(C)c1Br [Compound 14] | 78.9 |

Test system: J774 cells infected with P. aeruginosa strain PAK
Test: cells
Assay type: cell-based, Pseudomonas aeruginosa
Details: 25-200 µM
Method: The cell viability assay was performed essentially as described before. J774 cells were seeded in 96-well micro-titer plates (Nunc), 100 µL/well, to a final number of 50,000 cells/well in Dulbecco’s modified Eagle’s medium (DMEM) with glutamax (Merck) supplemented with 10% fetal calf serum (FCS) and 3 µg/mL gentamicin and incubated for 16-18 h. Overnight cultures of the P. aeruginosa strains PAK and PAKpcrV [10] were grown in Luria Broth (LB) on a rotary shaker at 220 rpm at 37 °C. Prior to infection, the bacteria were diluted 1:10 in DMEM + glutamax and incubated for 1 h at 37 °C (shaking). The J774 cells were washed once with PBS, then 30 µL of DMEM with glutamax and 10% FCS supplemented with the potential binders at concentrations of 50, 100, 200, and 400 µM were added to the wells in triplicates. The infection was initiated by adding 30 µL of the diluted bacterial solutions (where the OD600 had been diluted to 0.0008) to each well to initiate infection. This infection results in a final bacterial concentration of OD600 = 0.0004 and a multiplicities of infection (MOI) of approximately 8, with final concentrations of the compounds at 25, 50, 100, and 200 µM in 60 µL of DMEM + glutamax and 5% FCS. In the primary screening, the compounds were run at one concentration (100 µM) in duplicates. As an infection control, the wild-type strain PAK with 1% DMSO was added, and as a positive control, PAKpcrV with 1% DMSO was added into four wells each. After 3 h and 30 min, 10 µL of UptiBlue Viable Cell Counting Kit (Interchime, France) was added to all wells. The infection was followed under the light microscope and the fluorescence (excitation 535 nm and emission 595 nm) was measured at 4, 5, and 6 h in a microplate reader (Synergy™ H4, Biotek). The results were calculated as percentage of living cells compared to uninfected control, where the uninfected control was set to 100% living cells and the infected control was set to 0% living cells. As a control, compounds were added to uninfected cells in a parallel experiment and viability was calculated as above to screen for cell toxicity. A compound was considered toxic if the viability was <80% of the uninfected control after 6 h of incubation and if a visual change of cell morphology was observed by microscopy. Z’ was calculated for each plate to ensure good quality throughout the screening. Only results from plates with a Z’ > 0.4 were counted. Standard deviation was calculated with Gaussian approximation when appropriate and shown as error bars in Figure 3C and Figure 4A.
The T3SS is important for P. aeruginosa infection of eukaryotic cells, and a T3SS activator mutant or a mutant lacking the T3SS tip protein PcrV are not able to infect eukaryotic cells. The macrophage cell line, J774, was infected with the wild-type P. aeruginosa strain PAK, and the potential PcrV binders were added to the wells at a final concentration of 100 µM to screen for inhibition of infection. The T3SS-mediated cytotoxic effect on the eukaryotic cells was measured by using a viability staining method (Uptiblue, Interchim), and the results were measured after 4, 5, and 6 h of infection. The pcrV-mutant (PAKpcrV), which is not able to infect macrophages due to deletion of the PcrV protein, was used as a control.

| Compound | Anti-virulence efficacy in the infection assay (in words) |
| --- | --- |
| Cc1c(Br)ccc(OCCCC(=O)NS(=O)(=O)C(F)(F)F)c1C [Compound 25] | as efficacious as or better than H1 |
| Cc1c(Br)ccc(OCCCC(=O)N2CCCC(C(=O)O)C2)c1C (stereo not shown) [Compound 20] | no or modest anti-virulence activity without clear dose-response |
| Cc1cc(OCCCC(=O)O)cc(C)c1Br [Compound 14] | as efficacious as or better than H1 |

Same assay, conditions: Pseudomonas aeruginosa, J774, compound 25 µM; uninfected control = 100%, infected control = 0%; read-out: Viability Assay (% of Uninfected Control) 25 µM

| Compound | viability at 25 µM [%] |
| --- | --- |
| Cc1c(Br)ccc(OCCCC(=O)N2CCCCC2C(=O)O)c1C (stereo not shown) [Compound 22] | 18 |
| Cc1c(Br)ccc(OCCCC(=O)NC(C(=O)O)c2ccccc2)c1C (stereo not shown) [Compound 21] | 12 |
| Cc1c(Br)ccc(OCCCC(=O)NS(=O)(=O)C(F)(F)F)c1C [Compound 25] | 9 |
| COC(=O)CCCOc1ccc(Br)c(C)c1C [Compound 29] | 8 |
| Cc1c(Br)ccc(OCCCC(=O)NS(C)(=O)=O)c1C [Compound 26] | 10 |
| Cc1c(Br)ccc(OCCCC(=O)N2CCCC(C(=O)O)C2)c1C (stereo not shown) [Compound 20] | 15 |
| Cc1cc(OCCCC(=O)O)cc(C)c1Br [Compound 14] | 13 |

Same assay, conditions: Pseudomonas aeruginosa, J774, compound 50 µM; uninfected control = 100%, infected control = 0%; read-out: Viability Assay (% of Uninfected Control) 50 µM

| Compound | viability at 50 µM [%] |
| --- | --- |
| Cc1c(Br)ccc(OCCCC(=O)N2CCCCC2C(=O)O)c1C (stereo not shown) [Compound 22] | 27 |
| Cc1c(Br)ccc(OCCCC(=O)NC(C(=O)O)c2ccccc2)c1C (stereo not shown) [Compound 21] | 26 |
| Cc1c(Br)ccc(OCCCC(=O)NS(=O)(=O)C(F)(F)F)c1C [Compound 25] | 11 |
| COC(=O)CCCOc1ccc(Br)c(C)c1C [Compound 29] | 12 |
| Cc1c(Br)ccc(OCCCC(=O)NS(C)(=O)=O)c1C [Compound 26] | 11 |
| Cc1c(Br)ccc(OCCCC(=O)N2CCCC(C(=O)O)C2)c1C (stereo not shown) [Compound 20] | 15 |
| Cc1cc(OCCCC(=O)O)cc(C)c1Br [Compound 14] | 23 |

Same assay, conditions: Pseudomonas aeruginosa, J774, compound 100 µM; uninfected control = 100%, infected control = 0%; read-out: Viability Assay (% of Uninfected Control) 100 µM

| Compound | viability at 100 µM [%] |
| --- | --- |
| Cc1c(Br)ccc(OCCCC(=O)N2CCCCC2C(=O)O)c1C (stereo not shown) [Compound 22] | 29 |
| Cc1c(Br)ccc(OCCCC(=O)NC(C(=O)O)c2ccccc2)c1C (stereo not shown) [Compound 21] | 36 |
| Cc1c(Br)ccc(OCCCC(=O)NS(=O)(=O)C(F)(F)F)c1C [Compound 25] | 22 |
| COC(=O)CCCOc1ccc(Br)c(C)c1C [Compound 29] | 23 |
| Cc1c(Br)ccc(OCCCC(=O)NS(C)(=O)=O)c1C [Compound 26] | 17 |
| Cc1c(Br)ccc(OCCCC(=O)N2CCCC(C(=O)O)C2)c1C (stereo not shown) [Compound 20] | 15 |
| Cc1cc(OCCCC(=O)O)cc(C)c1Br [Compound 14] | 26 |

Same assay, conditions: Pseudomonas aeruginosa, J774, compound 200 µM; uninfected control = 100%, infected control = 0%

| Compound | viability at 200 µM [%] |
| --- | --- |
| Cc1c(Br)ccc(OCCCC(=O)N2CCCCC2C(=O)O)c1C (stereo not shown) [Compound 22] | 28 |
| Cc1c(Br)ccc(OCCCC(=O)NC(C(=O)O)c2ccccc2)c1C (stereo not shown) [Compound 21] | 30 |
| Cc1c(Br)ccc(OCCCC(=O)NS(=O)(=O)C(F)(F)F)c1C [Compound 25] | 34 |
| COC(=O)CCCOc1ccc(Br)c(C)c1C [Compound 29] | 14 |
| Cc1c(Br)ccc(OCCCC(=O)NS(C)(=O)=O)c1C [Compound 26] | 13 |
| Cc1c(Br)ccc(OCCCC(=O)N2CCCC(C(=O)O)C2)c1C (stereo not shown) [Compound 20] | 9 |
| Cc1cc(OCCCC(=O)O)cc(C)c1Br [Compound 14] | 32 |
